System: Microcystis aeruginosa
Assay: 14-day flask exposure of Microcystis aeruginosa to BADA
Assay type: cell-based
Procedure: The experiment was conducted for 14 days and was initiated using 100 mL BG-11 medium contained in 200 mL flasks. […] The experiment was initiated by exposing the algae to 0.2, 0.4, 0.8, 1.0, 1.2, 1.4, 1.8, and 2.0 ppm (mg/L) as BADA, 0.5 Cu/L Cutrine®-Plus. The solution was heated in a water bath and diluted to 70 mg/L using warmed deionized water. Cutrine®-Plus stock solution was made at 50 mg/L using deionized water. Three replicates of each exposure concentration, along with three replicates of an untreated reference were tested. Each sample was maintained at room temperature with 12-hours of light and 12-h dark photoperiod. The chlorophyll a concentrations of Microcystis aeruginosa through the 14 day exposure after exposure to concentrations of BADA and Cutrine®-Plus. The results are shown in TABLES 5, and 6, which show the chlorophyll a concentration and the cell density, respectively.

## CCCCCCCCCCCCN(CCCN)CCCN [BADA, N,N-bis-(3-aminopropyl) dodecylamine]
0.2 to 2.0 ppm (mg/L), by 15 days after start, p<0.01
  Chlorophyll a content of M. aeruginosa compared to untreated control algae: reduced
BADA 0.2 ppm, day 0 (initial)
  Cell density of M. aeruginosa cultures: 5.7E+05 cells/mL
  In vivo chlorophyll a concentrations of M. aeruginosa cultures: 0.90 µg/L
BADA 0.2 ppm, day 3
  In vivo chlorophyll a concentrations of M. aeruginosa cultures: 0.28 µg/L
BADA 0.2 ppm, day 7
  Cell density of M. aeruginosa cultures: <1E+04 cells/mL
  In vivo chlorophyll a concentrations of M. aeruginosa cultures: 0.06 µg/L
BADA 0.2 ppm, day 14
  Cell density of M. aeruginosa cultures: <1E+04 cells/mL
  In vivo chlorophyll a concentrations of M. aeruginosa cultures: 0.02 µg/L
BADA 0.4 ppm, day 0 (initial)
  Cell density of M. aeruginosa cultures: 5.7E+05 cells/mL
  In vivo chlorophyll a concentrations of M. aeruginosa cultures: 0.90 µg/L
BADA 0.4 ppm, day 3
  In vivo chlorophyll a concentrations of M. aeruginosa cultures: 0.23 µg/L
BADA 0.4 ppm, day 7
  Cell density of M. aeruginosa cultures: <1E+04 cells/mL
  In vivo chlorophyll a concentrations of M. aeruginosa cultures: 0.03 µg/L
BADA 0.4 ppm, day 14
  Cell density of M. aeruginosa cultures: <1E+04 cells/mL
  In vivo chlorophyll a concentrations of M. aeruginosa cultures: 0.02 µg/L
BADA 0.8 ppm, day 0 (initial)
  Cell density of M. aeruginosa cultures: 5.7E+05 cells/mL
  In vivo chlorophyll a concentrations of M. aeruginosa cultures: 0.90 µg/L
BADA 0.8 ppm, day 3
  In vivo chlorophyll a concentrations of M. aeruginosa cultures: 0.26 µg/L
BADA 0.8 ppm, day 7
  Cell density of M. aeruginosa cultures: <1E+04 cells/mL
  In vivo chlorophyll a concentrations of M. aeruginosa cultures: 0.03 µg/L
BADA 0.8 ppm, day 14
  Cell density of M. aeruginosa cultures: <1E+04 cells/mL
  In vivo chlorophyll a concentrations of M. aeruginosa cultures: 0.02 µg/L
BADA 1.0 ppm, day 0 (initial)
  Cell density of M. aeruginosa cultures: 5.7E+05 cells/mL
  In vivo chlorophyll a concentrations of M. aeruginosa cultures: 0.90 µg/L
BADA 1.0 ppm, day 3
  In vivo chlorophyll a concentrations of M. aeruginosa cultures: 0.31 µg/L
BADA 1.0 ppm, day 7
  Cell density of M. aeruginosa cultures: <1E+04 cells/mL
  In vivo chlorophyll a concentrations of M. aeruginosa cultures: 0.05 µg/L
BADA 1.0 ppm, day 14
  Cell density of M. aeruginosa cultures: <1E+04 cells/mL
  In vivo chlorophyll a concentrations of M. aeruginosa cultures: 0.02 µg/L
BADA 1.2 ppm, day 0 (initial)
  Cell density of M. aeruginosa cultures: 5.7E+05 cells/mL
  In vivo chlorophyll a concentrations of M. aeruginosa cultures: 0.90 µg/L
BADA 1.2 ppm, day 3
  In vivo chlorophyll a concentrations of M. aeruginosa cultures: 0.29 µg/L
BADA 1.2 ppm, day 7
  Cell density of M. aeruginosa cultures: <1E+04 cells/mL
  In vivo chlorophyll a concentrations of M. aeruginosa cultures: 0.04 µg/L
BADA 1.2 ppm, day 14
  Cell density of M. aeruginosa cultures: <1E+04 cells/mL
  In vivo chlorophyll a concentrations of M. aeruginosa cultures: 0.02 µg/L
BADA 1.4 ppm, day 0 (initial)
  Cell density of M. aeruginosa cultures: 5.7E+05 cells/mL
  In vivo chlorophyll a concentrations of M. aeruginosa cultures: 0.90 µg/L
BADA 1.4 ppm, day 3
  In vivo chlorophyll a concentrations of M. aeruginosa cultures: 0.29 µg/L
BADA 1.4 ppm, day 7
  Cell density of M. aeruginosa cultures: <1E+04 cells/mL
  In vivo chlorophyll a concentrations of M. aeruginosa cultures: 0.04 µg/L
BADA 1.4 ppm, day 14
  Cell density of M. aeruginosa cultures: <1E+04 cells/mL
  In vivo chlorophyll a concentrations of M. aeruginosa cultures: 0.01 µg/L
BADA 1.8 ppm, day 0 (initial)
  Cell density of M. aeruginosa cultures: 5.7E+05 cells/mL
  In vivo chlorophyll a concentrations of M. aeruginosa cultures: 0.90 µg/L
BADA 1.8 ppm, day 3
  In vivo chlorophyll a concentrations of M. aeruginosa cultures: 0.32 µg/L
BADA 1.8 ppm, day 7
  Cell density of M. aeruginosa cultures: <1E+04 cells/mL
  In vivo chlorophyll a concentrations of M. aeruginosa cultures: 0.03 µg/L
BADA 1.8 ppm, day 14
  Cell density of M. aeruginosa cultures: <1E+04 cells/mL
  In vivo chlorophyll a concentrations of M. aeruginosa cultures: 0.02 µg/L
BADA 2.0 ppm, day 0 (initial)
  Cell density of M. aeruginosa cultures: 5.7E+05 cells/mL
  In vivo chlorophyll a concentrations of M. aeruginosa cultures: 0.90 µg/L
BADA 2.0 ppm, day 3
  In vivo chlorophyll a concentrations of M. aeruginosa cultures: 0.40 µg/L
BADA 2.0 ppm, day 7
  Cell density of M. aeruginosa cultures: <1E+04 cells/mL
  In vivo chlorophyll a concentrations of M. aeruginosa cultures: 0.03 µg/L
BADA 2.0 ppm, day 14
  Cell density of M. aeruginosa cultures: <1E+04 cells/mL
  In vivo chlorophyll a concentrations of M. aeruginosa cultures: 0.01 µg/L

Source: patent publication US20180249707A1, “METHOD OF CONTROLLING ALGAE IN A BODY OF WATER” (priority 2013, published 2018)
